According to patent publication US8481678B2, “Peptide-based tooth whitening reagents” (E I du Pont de Nemours and Company, priority 2009, dated 2013):
Where no end group is shown, it is not given here. The star is where a group is joined. Biotin = O=C1N[C@H]2[C@H](CS[C@H]2CCCCC(=O)*)N1

B1: Engineered Peptide: recombinant triblock reagent: two tooth-binding peptides (SEQ 108), spacers, two cellulose acetate-binding peptides (SEQ 118), His-tag; applied with cellulose acetate-coated TiO2 (protein)
chain: PHMASMTGGQQMGSYSETPNDQKPNPHYKVSGTKGPEEAAKKEEAAKKPAYSETPNDQKPNPHYKVSGTKGSGGGGSGSGGGGSVRPNLHRKAKAKPDHKQSENRKVPFYSHGSSGGGGVRPNLHRKAKAKPDHKQSENRKVPFYSHGSSGGGHHHHHH
modifications: applied with cellulose acetate-coated TiO2; Synthetic peptide-based tooth whitening reagent

tested on: not listed separately; experiment: Phage ELISA, tooth enamel-binding assay (unpolished enamel blocks); parameters: species or system bovine; details: phage ELISA on unpolished enamel, over 10^10 pfu phage; no-phage control 0.193
Protocol: A total of 11 selected phage candidates (Example 3) were used in a phage ELISA experiment. Purified phage lysates were used for binding to the enamel blocks using an anti-M13 phage antibody conjugated to horseradish-peroxidase, followed by the addition of chromogenic agent TMB, obtained from Pierce Biotechnology (Rockford, Ill.). The plates were read at A450 nm.
For each phage candidate to be tested, the polished and unpolished enamel blocks were incubated for 1 h at room temperature with 200 μL of blocking buffer, consisting of 2% non-fat dry milk (Schleicher & Schuell, Inc.) in TBS. […] The tube was rinsed 6 times with wash buffer consisting of TBST-0.05%. The wells were filled with 200 μL of TBST-0.5% containing 1 mg/mL BSA and then 10 μL (over 10^10 pfu) of purified phage stock was added. The samples were incubated at room temperature for 60 min with slow shaking. The non-binding phage was removed by washing 6 times with TBST-0.5%. […] The conjugate solution was removed and was washed 6 times with TBST-0.5%. […] “BoEn P” means bovine polished enamel and BoEn means bovine enamel.

O.D. at 450 nm | Molecule
0.892 | SDCTAGLVPPLCAT (Tooth-binding peptide) [BoEn 7]
1.402 | AANPHTEWDRDAFQLAMPPK (Tooth-binding peptide) [BoEn 1]
0.944 | LNDQRKPGPPTMPTHSPAVG (Tooth-binding peptide) [BoEn 5]
3.942 | YSETPNDQKPNPHYKVSGTK (Tooth-binding peptide) [BoEn 10]
2.38 | NTCATSPNSYTCSN (Tooth-binding peptide) [BoEn 6]
0.568 | VGTMKQHPTTTQPPRVSATN (Tooth-binding peptide) [BoEn 9]

tested on: not listed separately; experiment: Whitening of tea-stained bovine enamel with peptide reagent and cellulose acetate-coated TiO2 (CIELAB colour); parameters: key to L* / a* / b*: CIELAB coordinates: L* lightness, a*/b* chromaticity (D65 illuminant); key to ΔE: ΔE = ((ΔL*)²+(Δa*)²+(Δb*)²)^½ vs tea-stained baseline; details: 5 μM peptide 30 min + 0.25% CA-TiO2 30 min, versus tea-stained baseline; buffer control 3.25
Protocol: The peptide-based reagent comprising multiple tooth-binding peptides, spacers, and cellulose acetate-binding peptide sequences was prepared as described in Example 8.
The cellulose acetate-coated titanium dioxide was prepared as described in Example 10. The peptide-based reagent described in Example 8 (SEQ ID NO:116) was used. The peptide-based reagent was diluted with 25 mM Tris-HCl buffer including 150 mM NaCl at pH 7.5 to give a final concentration of 5 μM. The cellulose acetate-coated titanium dioxide dispersion described in Example 10 was further diluted from 20% solids to 0.25% solids in 25 mM Tris-HCl buffer at pH 7.5.
Bovine Teeth (SE Dental, Baton Rouge, La.) were used as model substrate to test with the engineered peptide-based reagent designed to bind to tooth enamel (SEQ ID NO:116). The teeth were prepared by cleaning in detergent and then disinfecting in 70% Ethanol prior to use. Each clean tooth was measured for color using an X-RITE® SP64 Spectrometer to collect a reflectance spectrum and CIELAB color coordinates, L*, a* and b*. A staining solution was made with 100 mL of boiling water exposed to 1 Lipton tea bag for 5 minutes. After the solution cooled to room temperature, each tooth was allowed to incubate in the staining solution for approximately 3 days. The teeth were removed and rinsed with water and dried. Color measurement was obtained for each tooth.
The stained bovine enamel substrates were exposed to either the 5 μM solution of peptide or as a control, the buffer used to make the peptide solution. This exposure was for 30 minutes with gentle agitation in a vortex mixer. Following peptide binding, the teeth were removed and rinsed in buffer and placed in a 0.25% solution of cellulose acetate coated titanium dioxide for 30 minutes. The teeth were removed, rinsed in buffer, blotted dry and measured for color using the X-RITE® spectrometer. The teeth were placed back in the same pigment solutions for an additional 2.5 hr and removed, rinsed and measured again.
The color intensity at each step mentioned above (e.g., to determine the change in tooth whitening) was measured using a X-RITE® SP64™ Sphere Spectrophotometer (X-Rite, Inc., Grandville, Mich.), by placing the front of the bovine tooth (treated or control) sample into a sample holder and calculating L*, a* and b* parameters representing the photometer response using a standard D65 illuminant. An initial baseline values of L*, a* and b* were measured prior to peptide treatment for the tea-stained bovine samples. All measurements are the average of three individual determinations. Delta E values are calculated using equation 1 below: Delta E=((L*1−L*2)^2+(a1−a2)^2+(b1−b2)^2)^1/2 (1) where L*=the lightness variable and a* and b* are the chromaticity coordinates of CIELAB colorspace as defined by the International Commission of Illumination (CIE) (Minolta, Precise Color Communication—Color Control From Feeling to Instrumentation, Minolta Camera Co., 1996). Larger Delta E value is indicative of an increase in whiteness. In one embodiment, a larger Delta E for the treatment group (peptide-based reagent+polymer coated white colorant) versus the Delta E of the peptide-free control is used to determine the relative increase in whiteness.

Molecule | ΔE
B1 | 6.68

same assay, conditions: 5 μM peptide 30 min + 0.25% CA-TiO2 30 min; tea-stained baseline 3.96396

Molecule | a*
B1 | 1.635

same assay, conditions: 5 μM peptide 30 min + 0.25% CA-TiO2 30 min; tea-stained baseline 22.7952

Molecule | b*
B1 | 18.0418

same assay, conditions: 5 μM peptide 30 min + 0.25% CA-TiO2 30 min; tea-stained baseline 67.0271

Molecule | L*
B1 | 71.1068

same assay, conditions: after additional 2.5 hr in CA-TiO2

Molecule | L* | a* | b*
B1 | 73.9558 | 1.496 | 18.0851

same assay, conditions: after additional 2.5 hr in CA-TiO2, versus tea-stained baseline; buffer control 3.80

Molecule | ΔE
B1 | 8.73

tested on: pellicle coated bovine enamel; experiment: Phage ELISA on pellicle-coated bovine enamel (30 min in vivo pellicle), Example 13; type: binding, human; details: 10^11 pfu, 30 min at 37° C., normalized to an internal control
Protocol: A total of 29 selected phage candidates from Table 14 were used in phage ELISA Experiment to determine binding affinity and coverage of each phage on pellicle substrates. Purified phage lysates were used for binding to pellicle coated bovine enamel using an anti-M13 phage antibody conjugated to horseradish-peroxidase, followed by the addition of chromogenic agent TMB, obtained from Pierce Biotechnology (Rockford, Ill.). The plates were read at A450nm.
The wells were filled with 1 mL of 10^11 pfu purified phage stock which was prepared by diluting in blocking buffer. […] The non-binding phage was removed by washing 5 times with PBST. […] The conjugate solution was removed and was washed 3 times with PBST.

Molecule | O.D. at 450 nm (normalized)
TTYHYKNIYQESYQQRNPAV (Synthetic oral-surface binding peptide) [DenP 03] | 2.495

tested on: pellicle-coated enamel substrates; experiment: not given; details: 20 μM synthetic biotinylated peptide, 30 min at 37° C.; normalized to DenP03; three replicates; no peptide −0.001
Protocol: A total of 20 synthetic peptides were manufactured using sequences obtained from Table 14. Peptides were obtained from Synbiosci (Livermore, Calif.) and included an additional SSRP sequence (SEQ ID NO: 151) at the N-terminus and biotin labeled lysine at the C-terminus.
Enamel substrates were cut to approx. 7 mm squares and mounted on wax mounting for incubation in the mouth for 30 min to form a pellicle coated surface. The pellicle-coated enamel substrates were removed from the wax backing and placed in well plates with the pellicle surface exposed as in Example 1. Each pellicle-coated substrate was incubated for 1 h at room temperature (˜22° C.) with 1 mL of blocking buffer, consisting of 1 mg/mL BSA in PBST (Pierce BupH™ #28372 with 0.1% TWEEN® 20). The blocking buffer was removed by aspirating the liquid out of each well. The tube was rinsed 2 times with wash buffer consisting of PBST. The wells were filled with 500 μL of 20 μM peptide solution which was prepared by diluting in blocking buffer. The samples were incubated for 30 min with slow shaking at 37° C. The non-binding peptide was removed by washing 6 times with PBST. Then, 500 μL of horseradish peroxidase/streptavidin conjugate (Pierce #22127), diluted 1:2000 in PBST, was added and incubated for 1 h at room temperature. The conjugate solution was removed and was washed 4 times with PBST.
Each enamel substrate was removed from the well and washed again in a 15-mL test tube with 10 mL of PBST. Each enamel substrate was then mounted in a clean well plate with only the enamel surface exposed. A 1:1 solution of TMB substrate and H2O2 (200 μL), obtained from Pierce Biotechnology (Rockford, Ill.) was added to each well and the color was allowed to develop for between 10 to 20 min, typically for 15 min, at room temperature (˜22° C.). Then, 100 μL of solution from each well was transferred to a 96-well reading plate containing stop solution (100 μL of 2 M H2SO4) in each well. The A450 was measured using a microplate spectrophotometer (Molecular Devices, Sunnyvale, Calif.). […] Each sequence was tested with three replicate enamel coated pellicle substrates.

Molecule | O.D. at 450 nm (normalized)
SSRPVNPNWVETQALHQPPGNTK(Biotin) [DenP20-A] | 0.590
SSRPVEPATKNMREARSSTQMRRIK(Biotin) [DenP4-A] | 0.803
SSRPSEARARTFNDHTTPMPIIK(Biotin) [DenP14-A] | 0.269
SSRPGPQHVLMQDTHQGYAFDNK(Biotin) [DenP16-A] | 0.309
SSRPIYPNESMSTSNVRGPYHPK(Biotin) [DenP22-A] | 0.354
SSRPQVPDYLSPTHQKKAFLEIPTK(Biotin) [DenP29-A] | 0.468
SSRPTYQGVPSWPAVIDDAIRRK(Biotin) [DenP19-A] | 0.712
SSRPELDHDSRHYMNGLQRKVTK(Biotin) [DenP15-A] | 0.460

tested on: pellicle-coated bovine enamel; experiment: Phage ELISA on pellicle-coated bovine enamel, candidates from brushed 8 hr pellicle, Example 17; type: binding, human; details: phage ELISA screened with 30 min in vivo pellicle; normalized to DenP3; no-phage control 0.094
Protocol: A total of 18 selected phage candidates were used in a phage ELISA Experiment. Purified phage lysates were used for binding to pellicle-coated bovine enamel using an anti-M13 phage antibody conjugated to horseradish-peroxidase, followed by the addition of chromogenic agent TMB, obtained from Pierce Biotechnology (Rockford, Ill.). The plates were read at A450nm.
The wells were rinsed 2 times with wash buffer consisting of PBST. The wells were filled with 1 mL of […] purified phage stock which was prepared by diluting in blocking buffer. […] The non-binding phage was removed by washing 5 times with PBST. Then, 500 μL of horseradish peroxidase/anti-M13 antibody conjugate (Amersham USA, Piscataway, N.J.), diluted 1:500 in the blocking buffer, was added and incubated for 45 min at room temperature. The conjugate solution was removed and was washed 5 times with PBST.

Molecule | O.D. at 450 nm (normalized)
TTYHYKNIYQESYQQRNPAV (Synthetic oral-surface binding peptide) [DenP 03] | 1.000
THGNKHQSWTYPSEINHKNY [DenP108] | 1.149
